Test results taken from article PMC11091243, “PD-L1 targeted peptide demonstrates potent antitumor and immunomodulatory activity in cancer immunotherapy” (Frontiers in Immunology, 2024).

Legend:
[1] = system: PD-L1-mediated suppression of CD4+ T cells; test: T-cell activation assay (CD4+ T cells on anti-CD3/PD-L1 coated plates); type: cell-based, mouse
Experimental: Following the manufacturer’s instructions, mouse peripheral blood mononuclear cells (PBMCs) were isolated from a healthy mouse using separation fluid. Then, CD4 (L3T4) MicroBeads were used to separate CD4+ T cells from PBMCs, and a CD4-PE/Cy5 antibody was employed to determine effectiveness. Cells were adjusted to a concentration of 5×10^5 cells/mL in IMDM supplemented with 10% FBS and 20 ng/mL IL-2 to produce CD4+ T-cell blasts. A 1:1 ratio of mouse T-activator CD3/CD28 beads was introduced to the cells. Every other day, new media was added, and on day 7, cells were collected and stored for later use. 100 μL of anti-mouse CD3 (1 μg/mL) were applied to each well and incubated at 4°C overnight. Next, the wells were rinsed twice with […] of PBS. The wells were then filled with 100 μL of PD-L1 […] and the plates were incubated at 37°C for 3 hours before receiving two PBS washes. Then, varying quantities of PD-L1 monoclonal antibodies and peptides (PPL-C or control peptide) were added to the appropriate wells, and the plates were incubated at 37°C for an hour. The wells were then washed twice with PBS. Finally, CD4^+ T cells (5×10^4 cells/well) were added, then centrifugated the plate at 1,000 RMP for 2 min. The cells were then cultured for three days at 37°C in a humidified incubator with 5% CO2. A mouse IFN-γ ELISA Kit was used to assess the quantity of IFN-γ in culture supernatant. […]

[2] = biological target: mouse PD-L1 (mPD-L1) (Mus musculus, UniProt Q9EP73); test: Fluorescence-based ELISA, binding specificity; conditions: 20 μmol/L FITC-labeled peptide, 1.5 h room temperature, n = 3
Sequence of mouse PD-L1 (mPD-L1) (Q9EP73 19-290): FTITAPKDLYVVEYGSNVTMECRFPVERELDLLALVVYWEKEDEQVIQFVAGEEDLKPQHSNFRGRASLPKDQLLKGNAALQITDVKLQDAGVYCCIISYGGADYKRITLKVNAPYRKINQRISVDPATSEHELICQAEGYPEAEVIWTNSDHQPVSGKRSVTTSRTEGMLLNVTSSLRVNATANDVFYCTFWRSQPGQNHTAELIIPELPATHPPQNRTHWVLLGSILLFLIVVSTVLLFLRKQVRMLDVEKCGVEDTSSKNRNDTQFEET
Experimental: (§1) Fluorescence-based ELISA and cell-based tests were used to examine the binding specificity of PPL-C to PD-L1. To perform the ELISA, fluorescent plates were coated with 100 μL human PD-L1 (hPD-L1), mouse PD-L1 (mPD-L1), and BSA in PBS (pH 7.4) overnight at 4°C, respectively. Blocked the plates with 1% BSA (in PBST) for an hour at room temperature and rinsed twice with PBST. Then added peptides (20 μmol/L FITC-labeled PPL-C/Control peptide) and incubated for 1.5 hours at room temperature. With excitation at 488 nm and emission at 515 nm, the Cytation 3 instrument (BioTek) was used to measure the relative fluorescence intensity. Both attached and detached cells were used in the cell-based flow cytometry analysis. […] After that, cells were treated for 40 minutes at 4°C on an inversion shaker with PD-L1 antibody from Biolegend and 4 μmol/L FITC-labeled peptides (PPL-C/Control peptide). Each tube was washed twice with PBS following incubation and flow cytometry was carried out using a FACSort device. FlowJo software was used to evaluate the data that was acquired.

[3] = biological target: human PD-L1 (hPD-L1) (Homo sapiens, UniProt Q9NZQ7); test: Fluorescence-based ELISA, binding specificity; conditions: 20 μmol/L FITC-labeled peptide, 1.5 h room temperature, n = 3
Sequence of human PD-L1 (hPD-L1) (Q9NZQ7 19-290): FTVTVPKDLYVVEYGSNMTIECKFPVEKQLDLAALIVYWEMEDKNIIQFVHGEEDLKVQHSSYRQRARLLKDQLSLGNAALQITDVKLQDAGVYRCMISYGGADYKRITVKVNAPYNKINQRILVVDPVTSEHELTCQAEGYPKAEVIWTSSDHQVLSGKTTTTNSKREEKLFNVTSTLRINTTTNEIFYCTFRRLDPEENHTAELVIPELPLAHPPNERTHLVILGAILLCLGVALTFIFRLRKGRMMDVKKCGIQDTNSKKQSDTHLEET
Experimental: as §1

CC(C)[C@H](NC(=O)[C@H](CO)NC(=O)[C@@H](NC(=O)[C@@H](N)CO)C(C)C)C(=O)N[C@@H](CO)C(=O)N[C@@H](Cc1c[nH]cn1)C(=O)N[C@@H](Cc1ccccc1)C(=O)N[C@@H](CCC(N)=O)C(=O)N[C@@H](CCCCN)C(=O)N[C@H](C(=O)N[C@@H](Cc1c[nH]c2ccccc12)C(=O)N[C@H](C(=O)N[C@H](C(=O)NCC(=O)NCC(=O)NCC(=O)N[C@@H](CO)C(=O)N[C@@H](CCCCN)C(N)=O)C(C)C)C(C)C)C(C)C [PPL-C] was tested, and the T-cell proliferation ([1]; 20 μmol/L, CCK-8, n = 3) was “increased significantly”, the “IFN-γ release of CD4+ T lymphocytes” value ([1]; versus control peptide, 3 days, ELISA, n = 3) was “significant increase” and the “Binding to mPD-L1” value [2] was “higher specificity”. The “Binding to hPD-L1” value [3] was “cross-reactivity”.
